# How the values were obtained:
# E. cloacae 13047 = experiment: Frequency of resistance (FOR); assay type: cell-based; conditions: 4× MIC, MHII agarose
# Procedure: (§1) Frequencies of resistance (FORs) of G0790 were determined for E. coli CFT073, E. cloacae (ATCC 13047), and K. pneumoniae (ATCC 700603) as previously published ([70]). To determine the FOR, 3 to 4 colonies of the strain to be tested were picked from a fresh plate and diluted to an optical density at 600 nm (OD600) of 0.00001 in 1 ml of cation-adjusted MHBII. Ten independent 5-ml cultures in MHBII were prepared by inoculating 5 μl (approximately 1 × 10^3 CFU) and incubated at 37°C for 18 h. The bacteria were pelleted by centrifugation at 4000 × g at 4°C for 15 min and resuspended in 0.5 ml fresh MHBII. Two hundred fifty microliters of the bacterial suspension was plated evenly on MHII agarose plates containing globomycin or G0790 at a final concentration of 4× and 8× MIC. In parallel, CFU from each independent culture was measured by spotting 10-fold serial dilutions on MHII agar plates and incubated at 37°C for 18 h. Colonies were counted at days 1, 2, and 3 postinoculation. FOR was calculated as the ratio of the total number of resistant colonies relative to the total CFU plated. For strains that had no resistant colonies growing on plates, the p0 method was used to calculate the FOR (FOR = m/total CFU plated, where m = −ln p0 and p0 is the proportion of cultures with no mutants; 0.7 ≥ p0 ≥ 0.1), as described previously ([71]). Colonies were picked and resuspended in 30 μl MHBII broth medium, and 10 μl was plated on an MHII agar plate containing G0790 to be used to determine the MIC. Of the remaining 20 μl, half was used to inoculate 1.5 ml MHBII broth medium containing G0790 and grown at 37°C for 18 h to generate cell lysates for Western blot analysis, isolate genomic DNA (gDNA) for whole-genome sequencing, and for frozen glycerol stocks.
# E. coli CFT073 Δlpp = experiment: Frequency of resistance (FOR); assay type: cell-based; conditions: for FOR (frequency of resistance): MHII agarose
# Procedure: as §1
# E. coli CFT073 = experiment: Frequency of resistance (FOR); assay type: cell-based; conditions: 4× MIC, MHII agarose
# Procedure: as §1
# K. pneumoniae 700603 = experiment: Frequency of resistance (FOR); assay type: cell-based; conditions: 4× MIC
# Procedure: as §1
# Lpp = Lpp localization in peptidoglycan-associated and membrane fractions, Western blot; assay type: cell-based, E. coli; conditions: CFT073, 2× MIC G0790
# Procedure: Purification of peptidoglycan-associated proteins (PAPs) was performed according to published methods ([43], [67], [68]) with some modifications. Briefly, bacteria were harvested in mid-exponential phase for treatment and then subjected to PAP extraction by resuspending cell pellets from an optical density (OD; A600) of 10 in 6 ml of PAP extraction buffer containing 2% (wt/vol) SDS in 100 mM Tris-HCl (pH 8.0) with 100 mM NaCl, 10% glycerol, and cOmplete mini EDTA-free protease inhibitor cocktail (Sigma-Aldrich). After 60 min at room temperature (RT), the extraction was subjected to centrifugation at 100,000 × g for 60 min at 22°C, and the pellet, containing peptidoglycan-associated proteins, was washed once with the same PAP extraction buffer with centrifugation at 100,000 × g for 30 min and resuspended in 200 μl of PAP extraction buffer (referred to as the SDS-insoluble or PAP fraction). The supernatant containing the SDS-soluble fraction was aliquoted and frozen (referred to as the non-PAP fraction). Both fractions were treated with equal volumes of BugBuster buffer prior to the addition of sample buffer for Western immunoblotting as described above.
# The inner and outer membrane fractionations of bacterial cells were performed according to published methods ([69]), with some modifications. […]
smiles,measurement,setting,value
CCCCCC[C@H]1OC(=O)CNC(=O)[C@H]([C@H](C)O)NC(=O)[C@H](CN)NC(=O)[C@H](C2CCCCC2)NC(=O)[C@H](CCC)N(C)C(=O)[C@@H]1C [G0790],FOR (frequency of resistance),E. cloacae 13047,2.7 × 10^−9
same,Decrease in FOR in CFT073 Δlpp compared to WT CFT073,E. coli CFT073 Δlpp; 4× MIC,~85 fold
same,FOR (frequency of resistance),E. coli CFT073 Δlpp; 4× MIC,3.4 × 10^−11
same,FOR (frequency of resistance),"E. coli CFT073 Δlpp; 8× MIC, no colonies, p0 method",<1.7 × 10^−11
same,FOR (frequency of resistance),E. coli CFT073,2.9 × 10^−9
same,FOR increase in K. pneumoniae 700603 relative to E. coli,K. pneumoniae 700603,~17 fold
same,FOR (frequency of resistance),K. pneumoniae 700603; MHII agarose,4.8 × 10^−8
same,Lpp localization after treatment,Lpp,loss of the peptidoglycan-associated form of Lpp in the outer membrane and its accumulation in the inner membrane

# Source: paper PMC7482066, “Unstable Mechanisms of Resistance to Inhibitors of Escherichia coli Lipoprotein Signal Peptidase” (mBio, 2020)
